Results on 10 molecules are retold here after patent US4818754A, “Certain anti-inflammatory pyrazolo [4,3-b] pyridine 7-amines” (Beecham Group p.l.c. of Beecham House, priority 1986, dated 1989).

SMILES strings stand for the structures.

The test system of assay [1] is swelling induced by oxazolone. As to the kind of experiment: Mouse oxazolone test (topical anti-inflammatory activity in mice sensitised to oxazolone, ear swelling). It counts as in vivo. Conditions: dose 200 μg/ear, 1 hour before challenge, 24 hours after, CDl male mice, *p < 0.1, **p < 0.01, ***p < 0.001. The procedure:
Compounds were tested for topical anti-inflammatory activity in a model system using the mouse sensitised to oxazolone, by a method modified from that of Dietrich and Hess [Int. Arch. Allergy, 38, 246 (1970)].
Mice are sensitised with oxazolone (2 mg in 20 μl acetone) on a shaved area of the abdomen. CDl male mice of around 25 g bodyweight (8 animals per group) are used. 5 days later, the animals receive 10 μl tetrahydrofuran:methanol (1:1 v/v) on the right ear and the test compound in 10 μl of the same solvent on the left ear. 1 hour later, the animals are challenged with 100 μg oxazolone in 10 μl acetone on each ear. Negative control animals receive no treatment except 10 μl tetrahydrofuran:methanol at the initial time point. After 24 hours, the animals are killed and the ears are removed by cutting along the hairline and then weighed. The swelling induced by oxazolone is assessed as the increase in the weight of the right ears over that of the right ears of solvent-treated control animals, as a proportion of the weight of solvent-treated right ears. The swelling induced in the same animals in the presence of test compound is similarly the increase in the weight of the left ears over that of the left ears of the solvent-treated control animals, expressed as a proportion of the weight of solvent-treated left ears.
thus, % inhibition=([mean wt.left experimental ears-mean wt.left 100-control ears]/[mean wt.left control ears])×100 ([mean wt.right experimental ears-mean wt.right control ears]/[mean wt.right control ears])
(§1) This method reduces the contribution of inter-animal variations in responsiveness to the inflammatory stimulus, and also compensates for any consistent bias in cutting off left and right ears. The significance of the inhibition is calculated using a paired `t` test of the two values of proportional weight increases.

Assay [2] relates to swelling induced by cantharidin. As to the kind of experiment: Mouse cantharidin test (topical anti-inflammatory activity, mouse ear swelling). The class given is in vivo. The note with it: 24 hours, CDl male mice, **p < 0.01, ***p < 0.001; for inhibition in vivo at 500 µg/ear: dose 500 μg/ear; for inhibition in vivo at 200 µg/ear: dose 200 μg/ear. The procedure:
Compounds were tested for topical anti-inflammatory activity in a cantharidin mouse ear screen, modified from Swingle, Reiter and Schwartzmiller [Arch. int. Pharmacodyn. 254, 168-176, 1981].
25 μg cantharidin (in 10 μl tetrahydrofuran:methanol, 1:1 v/v) is applied to both ears of CDl male mice, 25 g bodyweight. 8 animals are used per experimental group. Compounds are included in the irritant solution applied to the left ear only. Negative control animals receive no treatment except 10 μl solvent on each ear. After 24 hours, the animals are killed and the ears are removed by cutting along the hairline and then weighed. The swelling induced by cantharidin is assessed as the increase in the weight of the right ears over that of the right ears of solvent-treated control animals, as a proportion of the weight of solvent-treated right ears. The swelling induced in the same animals in the presence of test compound is similarly the increase in the weight of the left ears over that of the left ears of the solvent-treated control animals, expressed as a proportion of the weight of solvent-treated left ears.
thus, % inhibition=([means wt.left experimental ears-mean wt.left 100-control ears]/[mean wt.left control ears])×100 ([mean wt.right experimental ears-mean wt.right control ears]/[mean wt.right control ears])
as §1

Broadly, the % Inhibition is the change of the read-out against control, counted positive when it falls. Usually inhibition in vivo stands for the drop in the measured response relative to a control, in per cent. Take `CCOC(=O)CCCNc1ccnc2cn[nH]c12` [Example 2, Ethyl 4-(7-(1H-Pyrazolo[4,3-b]pyridyl)amino)butanoate]: the “% Inhibition” value in assay [1] worked out at 48.6%. This molecule displayed an inhibition in vivo at 500 µg/ear in assay [2] of 94.6%. Consider `Cc1cc(NCCCN2CCCC2=O)c2[nH]ncc2n1` [Example 3, 5-Methyl-7-(3-(1-(2-oxopyrrolidinyl))propylamino)-1H-pyrazolo[4,3-b]pyridine], for which the “% Inhibition” value in assay [1] was found to be 44.1%. This molecule also displayed an inhibition in vivo at 200 µg/ear in assay [2] of 75.3%. In assay [2], `CCCCC(=O)OCCCNc1cc(C)nc2cn[nH]c12` [Example 4, 7-[3-Pentanoyloxypropylamino]-5-methyl-1H-pyrazolo[4,3-b]pyridine] had an inhibition in vivo at 200 µg/ear of 69.9%. `Cc1cc(NCCN2CCOCC2)c2[nH]ncc2n1` [Example 5, 7-[2-(N-Morpholino)ethylamino]-5-methyl-1H-pyrazolo [4,3-b]pyridine dihydrate]: in assay [1], the “% Inhibition” value is 61.6%. Also, in assay [2], the inhibition in vivo at 200 µg/ear is 97.6%. On the same counts, the results for `CC(=O)OCCCNc1cc(C)nc2cn[nH]c12` [Example 6, 7-[3-Acetoxypropylamino]-5-methyl-1H-pyrazolo[4,3-b]-pyridine] are 53% and 70%.

With `Cc1cc(NCCOC(=O)c2ccccc2)c2[nH]ncc2n1` [Example 7, 7-[2-Benzoyloxyethylamino]-5-methyl-1H-pyrazolo[4,3-b]pyridine], the “% Inhibition” value in assay [1] was determined as 30%. The molecule also had an inhibition in vivo at 500 µg/ear in assay [2] of 99.6%.

Take `O=C(CCCNc1ccnc2cn[nH]c12)NCc1ccccc1` [Example 8, (7-(1H-Pyrazolo[4,3,-b]pyridyl)amino)butanoic acid benzylamide]: the inhibition in vivo at 500 µg/ear in assay [2] stood at 95%. As to `CCCCC(=O)OCCNc1cc(C)nc2cn[nH]c12` [Example 9, 7-(2-Pentanoyloxyethylamino)-5-methyl-1H-pyrazolo[4,3-b]pyridine], the inhibition in vivo at 200 µg/ear in assay [2] came out at 69%. `CCC(=O)OCCNc1cc(C)nc2cn[nH]c12` [Example 10, 7-[2-Propionyloxyethylamino]-5-methyl-1H-pyrazolo[4,3-b]pyridine] came in with an inhibition in vivo at 200 µg/ear in assay [2] of 55%.

In turn, `CC(C)CCOC(=O)CCCNc1ccnc2cn[nH]c12` [Example 12, Isoamyl (7-(1H-pyrazolo[4,3-b]pyridyl)amino)butanoate] showed an inhibition in vivo at 200 µg/ear in assay [2] of 78%.
